Results reported in PMC10650714, “Double Attack to Oxidative Stress in Neurodegenerative Disorders: MAO-B and Nrf2 as Elected Targets” (Molecules, 2023).
Counter-ions that a name gives are not always drawn.

Tests used:
[1] = biological target: T1, recombinant hMAO-A (Homo sapiens, UniProt P21397); assay: hMAO-A activity assay (kynuramine, fluorimetric); type: biochemical; conditions: kynuramine [S] = 10 µM, pH 7.4, 37 °C; mean ± S.D.; read-out: hMAO-A Ki
T1 construct: purchased Fluka-Sigma-Aldrich s.r.l; (Italy); host or cells: Baculovirus infected BT1 cells
T1 sequence (P21397 1-527): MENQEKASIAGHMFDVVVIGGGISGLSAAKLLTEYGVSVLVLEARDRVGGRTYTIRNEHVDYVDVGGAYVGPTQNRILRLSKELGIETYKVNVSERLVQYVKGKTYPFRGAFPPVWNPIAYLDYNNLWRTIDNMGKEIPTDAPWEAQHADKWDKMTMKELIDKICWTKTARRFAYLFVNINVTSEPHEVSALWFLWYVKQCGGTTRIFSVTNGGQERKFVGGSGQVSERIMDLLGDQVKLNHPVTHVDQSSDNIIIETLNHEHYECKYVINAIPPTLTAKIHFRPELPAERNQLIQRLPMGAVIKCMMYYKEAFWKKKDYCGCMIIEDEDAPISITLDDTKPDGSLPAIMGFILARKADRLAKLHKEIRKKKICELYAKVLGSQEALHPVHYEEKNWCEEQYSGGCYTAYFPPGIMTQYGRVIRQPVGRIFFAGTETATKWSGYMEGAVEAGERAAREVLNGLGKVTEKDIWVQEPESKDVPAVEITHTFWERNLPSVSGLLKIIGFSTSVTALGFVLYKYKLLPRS
Protocol: (§1) Human recombinant hMAO-A and hMAO-B expressed in Baculovirus infected BT1 cells (5 mg/mL) and horseradish peroxidases were purchased from Fluka-Sigma-Aldrich s.r.l. (Italy). A Cary Eclipse fluorimeter (Varian Inc., Palo Alto, CA, USA) was used for fluorescence measurements. […] At first, the peroxidase-coupled continuous assay that detect the H2O2 generation rate was considered. It uses the Amplex Red reagent as the fluorogenic substrate for horseradish peroxidase.
(§2) By applying this method, hMAO activity assays were performed in K/Pi 0.1 M, EDTA 1 mM (total volume: 200 μL; pH 7.4, T = 37 °C), in the presence and in absence of various concentrations of the different compounds (0.2–20 μM and 2–50 μM in the case of hMAO–B and hMAO-A, respectively).
(§3) MAOs stock solutions were diluted with assay buffer in the presence or absence of the tested compound to obtain a final concentration of 0.005 mg/mL for MAO-A and 0.010 mg/mL for MAO-B; then, kynuramine (10–300 μM final concentration) was added to the assay solution. After 45–60 min of incubation at 37 °C, the reaction was stopped by the addition of 2 M NaOH (80 μL) and 480 μL of distilled water. Kynuramine deaminated by MAO spontaneously cyclizes to provide 4-hydroxyquinoline, the amount of which was determined by the fluorescence intensity of the peak of its emission spectra (λexc = 330 nm and λem 330–530 nm). Then, the rate of reaction was calculated using a specific calibration curve (in the presence of the same amount of the tested compound) built with the standard 4-hydroxyquinoline.
(§4) Under these experimental conditions, the Michaelis–Menten equation for rate of reaction, can be simplified as follows: V ≈ (Vmax/KM) [E]0[S]0 [49]. In the presence of an inhibitor, one or both the kinetic parameters, KM and Vmax, might be affected by its presence, depending on the inhibition mechanism. In particular, in the presence of a reversible inhibitor, both the kinetic parameters could be affected, and the apparent kinetic parameter would then become: KM I = KM,0 (1 + [I]/Ki)/(1 + [I]/(αKi)), and VmaxI = Vmax0/(1 + [I]/(αKi)), where α is the factor indicating how much the dissociation constant of the enzyme-substrate-I complex is different from that of the enzyme–I complex (also named Ki). Consequently, the ratio of the initial rate of reaction in the absence (Vo) and in the presence (VI) of the tested compound (Vo/VI) can be simplified to the ratio of (Vmax/KM)o/(Vmax/KM)I ≈ (1 + [I]/Ki).
(§5) To study the mechanism of inhibition, the steady-state kinetic parameters (Vmax and Km) of MAO-A and MAO-B were determined by performing experiments at different substrate concentrations and in the absence and presence of different concentrations of the tested compound. Vmax and Km were calculated by fitting the Michaelis–Menten equation to the experimental data (initial rate of reactions vs. substrate concentrations), with Sigma Plot software, version 9.0 (Jandel Scientific, San Rafael, CA, USA).

[2] = biological target: T2, recombinant hMAO-B (Homo sapiens, UniProt P27338); assay: hMAO-B activity assay (kynuramine, fluorimetric); type: biochemical; conditions: for SI (selectivity index): calculated as hMAO-A Ki/hMAO-B Ki; for Ki: kynuramine [S] = 10 µM, pH 7.4, 37 °C, mean ± S.D., read-out: hMAO-B Ki
T2 construct: purchased Fluka-Sigma-Aldrich s.r.l; (Italy); host or cells: Baculovirus infected BT1 cells
T2 sequence (P27338 1-520): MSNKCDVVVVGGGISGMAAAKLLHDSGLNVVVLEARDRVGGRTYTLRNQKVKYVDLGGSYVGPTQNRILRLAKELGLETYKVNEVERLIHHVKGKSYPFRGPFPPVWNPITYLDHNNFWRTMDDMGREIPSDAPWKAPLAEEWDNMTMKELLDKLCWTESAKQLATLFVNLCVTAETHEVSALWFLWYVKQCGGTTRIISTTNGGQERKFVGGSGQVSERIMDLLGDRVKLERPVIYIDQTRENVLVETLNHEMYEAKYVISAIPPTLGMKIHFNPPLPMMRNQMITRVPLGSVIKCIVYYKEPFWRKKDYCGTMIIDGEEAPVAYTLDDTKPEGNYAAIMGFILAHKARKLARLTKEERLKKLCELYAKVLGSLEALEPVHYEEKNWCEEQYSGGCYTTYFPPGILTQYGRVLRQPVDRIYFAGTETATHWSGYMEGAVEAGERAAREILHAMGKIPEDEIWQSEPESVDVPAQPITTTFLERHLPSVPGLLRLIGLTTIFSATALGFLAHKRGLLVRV
Protocol: as §1, §2, §3, §4, §5

[3] = tested on: ROS production in HepG2 cells; assay: Intracellular ROS generation rate (DCF-DA); type: cell-based, human; conditions: 5 µM, antimycin A 10 µM, 30 min
Protocol: Thus, on the basis of the hMAO-B inhibitory potency and on the Nrf2 nuclear translocation results, the most promising compounds 2 and 3 were chosen for the evaluation of their antioxidant activity in the human hepatic HepG2 cells, a valuable cellular system to assess antioxidant properties of the compounds [43, 44]. CAPE and pioglitazone were also tested as reference compounds. HepG2 cells were pre-loaded with dichlorofluorescein diacetate (DCF-DA), a fluorescent probe to detect ROS generation. […] Immediately, antimycin A (10 µM), an inhibitor of the complex III of the mitochondrial electron transport chain, was also added as an ROS inducer. The oxidation rate of DCF, that is, the generation rate of ROS, was detected for 30 min, and for each sample, the corresponding control was also run.
HepG2 cells (human hepatocellular carcinoma) were purchased from the American Type Culture Collection (ATCC HB-8065). Cells were grown in MEM (M0894, Merck Life Sciences S.r.l., Milan, Italy) supplemented with 2.2 g/L NaHCO3 (S5761, Merck Life Sciences S.r.l., Milan, Italy), 100 U/mL penicillin, 100 μg/mL streptomycin and 0.25 μg/mL amphotericin B (A5955, Merck Life Sciences S.r.l., Milan, Italy) and 10% foetal calf serum (F7524, Merck Life Sciences S.r.l., Milan, Italy). Cells were cultured at 37 °C in a humidified atmosphere incubator containing 5% carbon dioxide in air.
The intracellular production of ROS was detected via a fluorometric method using 2′,7′-dichlorofluorescein diacetate (D6883, Merck Life Sciences S.r.l., Milan, Italy) as probe. HepG2 cells (6 × 10^3/well) were seeded into a 96-well culture plate in 200 µL of a complete growth medium and incubated for 48 h in standard conditions. The medium was then removed, and cells were washed with 5 mM of PBS–glucose. Then, cells were loaded with 10 μM of 2′,7′-dichlorofluorescein diacetate in 5 mM of PBS–glucose at 37 °C in the dark for 20 min, washed with 5 mM of PBS–glucose, treated with the test compounds at indicated concentrations in 5 mM of PBS–glucose and then analysed. Fluorescence intensity was recorded for 30 min at λemx = 485 nm and λem = 527 nm, using a Victor X3 Multilabel plate reader (Perkin Elmer). The rate of ROS generation was calculated relative to untreated cells (controls) after subtraction of autofluorescence value. Results were presented as the mean values of at least three independent experiments performed with six replicates.

[4] = tested on: Nrf2 nuclear translocation in SH-SY5Y cells; assay: Nrf2 nuclear translocation (Western blot of nuclear extracts); type: cell-based, human; conditions: 5 μM, 3 h
Text: In physiological conditions, the repressor Keap1 traps Nrf2 at the cytosolic level, preventing the activation of Nrf2 pathway. The disruption of Keap1–Nrf2 interaction allows for Nrf2 nuclear translocation, thus resulting in the transcriptional activation of its target cytoprotective genes. […] We and others have previously developed several compounds bearing caffeic and ferulic fragments able to activate Nrf2 in terms of the up-regulation of Nrf2 expression, translocation into the nucleus and induction of the Nrf2-dependent defensive genes, with (pro)electrophilic features emerging as key players. Herein, to analyse the effect of the new molecules on the Nrf2 downstream cascade, the ability of compounds 1–5 to increase Nrf2 nuclear translocation was preliminary evaluated as a pivotal step in Nrf2 signalling activation (Figure 6). Based on MAO-B inhibitory potency and cell toxicity assay, compounds were studied in SH-SY5Y human neuroblastoma cells at the concentration of 5 μM. Given the high structural analogy with our derivatives, we selected the well-known Nrf2 inducer CAPE [37, 38] as the reference compound, and verified its ability to induce Nrf2 nuclear translocation at different concentrations, ranging from 5 µM to 50 µM in our experimental model (Figure S6). Nrf2 nuclear content was assessed via Western blot analysis. […] Consistently, data from literature highlight discrepancies about pioglitazone-mediated Nrf2 activation, indicating its ability to activate Nrf2 in longer timeframes and different in vitro and in vivo experimental conditions. […] The preliminary docking performed on human Keap-1 confirms the excellent positioning of compound 2 within the BTB domain pocket, where cysteine 151 is located (see Figure S5). […] Particularly, all these new molecules hold the characteristic (pro)electrophilic fragments, which however, in this case, resulted to be insufficient to activate Nrf2, as reported for other ferulic and caffeic derivatives. In this regard, optimal target interaction might play a major role, but further biological investigations are needed to fully clarify the mechanism of Nrf2 activation and the effect on the downstream expression of cytoprotective genes.
SH-SY5Y cells (5 × 106) were seeded in […] dishes and treated for 3 h with 5 μM compounds; afterward, the medium was removed, and cells were washed twice with ice-cold PBS. Cells were subsequently homogenized 15 times using a glass−glass Dounce homogenizer in 0.32 M sucrose, buffered with 20 mM Tris- HCl (pH 7.4), containing 2 mM EDTA, 0.5 mM EGTA, 50 mM β-mercaptoethanol and 20 μg/mL leupeptin, apotrinin and pepstatin. The homogenate was centrifuged at 300× g for 5 min to obtain the nuclear fraction. An aliquot of the nuclear fraction was used for protein assay via the Bradford method, whereas the remaining was boiled for 5 min after dilution with sample buffer and subjected to polyacrylamide gel electrophoresis and immunoblotting, as described.

| melting point [°C] | Ki [1] [µM] | decrease in hMAO-B inhibitory potency in comparison with pioglitazone [2] [times] | SI (selectivity index) [2] | Ki [2] [µM] | SMILES | effect on antimycin A-induced ROS [3] | Nrf2 nuclear translocation [4] |
| --- | --- | --- | --- | --- | --- | --- | --- |
| 148 to 149 | 39 ± 5 | – | 15.6 | 2.5 ± 1 | O=C(/C=C/c1ccc(O)c(O)c1)Nc1ccc(CC2SC(=O)NC2=O)cc1 (centres unmarked) [Compound 4, (E)-3-(3,4-Dihydroxyphenyl)-N-(4-((2,4-dioxothiazolidin-5-yl)methyl)phenyl)acrylamide] | – | promoted Nrf2 translocation at a lower extent |
| 151 to 152 | 47 ± 4 | – | 14.2 | 3.3 ± 1 | COc1cc(/C=C/C(=O)Nc2ccc(CC3SC(=O)NC3=O)cc2)ccc1O (centres unmarked) [Compound 5, (E)-N-(4-((2,4-Dioxothiazolidin-5-yl)methyl)phenyl)-3-(4-hydroxy-3-methoxyphenyl)acrylamide] | – | promoted Nrf2 translocation at a lower extent |

Second part, the molecule before the results:

| SMILES | melting point [°C] | Ki [1] [µM] | decrease in hMAO-B inhibitory potency in comparison with pioglitazone [2] [times] | SI (selectivity index) [2] | Ki [2] [µM] | effect on antimycin A-induced ROS [3] | Nrf2 nuclear translocation [4] |
| --- | --- | --- | --- | --- | --- | --- | --- |
| COC(=O)/C=C/C(=O)Oc1ccc(CC2SC(=O)NC2=O)cc1 (centres unmarked) (as salt: fumarate) [Compound 1, 4-((2,4-Dioxothiazolidin-5-yl)methyl)phenyl Methyl Fumarate] | 150 to 151 | – | – | – | – | – | – |
| COC(=O)/C=C/C(=O)Oc1ccc(CC2SC(=O)NC2=O)cc1 (centres unmarked) [Compound 1, 4-((2,4-Dioxothiazolidin-5-yl)methyl)phenyl Methyl Fumarate] | – | 25 ± 4 | 50 | 8.0 | 3.14 ± 0.2 | – | – |
| COc1cc(/C=C/C(=O)Oc2ccc(CC3SC(=O)NC3=O)cc2)ccc1O (centres unmarked) [Compound 3, 4-((2,4-Dioxothiazolidin-5-yl)methyl)phenyl (E)-3-(4-hydroxy-3-methoxyphenyl)acrylate] | 155 to 156 | 32 ± 2 | – | 32.3 | 0.99 ± 0.15 | almost abolish the effect of antimycin A stimulus | – |
